Measured values reported in patent publication US10617664B2, “Brain derived PPARα ligands” (Rush University Medical Center, priority 2015, dated 2020).

These compounds were tested on NR2A, GluR1 and CREB (assay: Immunoblot and immunofluorescence of synaptic molecules in WT hippocampal neurons). Conditions: 5 μM HEX, 5 μM OCT, 50 μM HMB.
Assay type: cell-based, mouse
Description: (FIG. 17A) Immunoblot analyses followed by densitometric analyses of NR2A (FIG. 17B), GluR1 (FIG. 17C) and CREB (FIG. 17D) were performed in Ppara-null and WT hippocampal neurons treated with 5 μM HEX, 5 μM OCT and 50 μM HMB. Data are mean±SD of three different experiments. ^ap<0.05 versus WT-control. Immunocytochemical analyses of NR2A (FIG. 17E) and GluR1 (FIG. 17F) in WT and Ppara-null hippocampal neurons treated with HEX, OCT and HMB. Hippocampal neurons were transduced with lenti-GFP for 48 h followed by treatment with different ligands. Immunoblot analyses followed by relative densitometric analyses of CREB in Ppara-null hippocampal neurons transduced with lentivirions containing different Ppara constructs followed by treatment with HEX (FIG. 17G-H), OCT (FIG. 17I-J) and HMB (FIG. 17K-L). Bands were scanned and presented as relative to control (FIG. 17H, HEX; FIG. 17J, OCT; FIG. 17L, HMB). Data are mean±SD of three different experiments. ^ap<0.05 vs FLPpara control.
Isolation of Mouse Hippocampal Neurons: Hippocampal neurons were isolated from fetuses (E18) of pregnant female Ppara-null and strain-matched WT littermate mice as described by us^6,13,35-36 with some modifications. Briefly, dissection and isolation procedures were performed in an ice-cold, sucrose buffer solution (sucrose 0.32 M, Tris 0.025 M; pH 7.4)^37. The skin and the skull were carefully removed from the brain by scissors followed by peeling off the meninges by a pair of fine tweezers. Next, a fine incision was made in the middle line around the circle of Willis and medial temporal lobe was opened up. Hippocampus was isolated as a thin slice of tissue located near the cortical edge of medial temporal lobe. Hippocampal tissues isolated from all fetal pups (n>10) were combined together and homogenized with 1 ml of trypsin for 5 minutes at 37° C. followed by neutralization of trypsin. The single cell suspension of hippocampal tissue was plated in the poly-D-lysine pre-coated 75 mm flask. Five min after plating, the supernatants were carefully removed and replaced with complete neurobasal media. The next day, 10 μM AraC was added to remove glial contamination in the neuronal culture. The pure cultures of hippocampal neurons were allowed to differentiate fully for 9-10 days before treatment^35,36,38.
For whole-cell and tissue lysates, samples were homogenized in RIPA buffer containing protease and phosphatase inhibitors (Sigma), passed 10 times through a 26-gauge needle, rotated end over end for 30 min at 4° C., and centrifuged for 10 min at 18,000×g. The supernatant was aliquoted and stored at −80° C. until use. Protein concentrations were determined using a NanoDrop 2000 (Thermo Fisher), and 15-30 μg sample was heat-denatured and resolved on 10% or 12% polyacrylamide-SDS gels, transferred to 0.45 μm nitrocellulose membranes under semidry conditions (15V for 12 min). Membranes were blocked for 1 h with blocking buffer (Li-Cor), incubated with primary antibodies overnight at 4° C. under shaking conditions, washed, incubated with IR-dye-labeled secondary antibodies (1:17,000; Li-Cor) for 45 min at room temperature, washed, and visualized with the Odyssey Infrared Imaging System (Li-Cor). Blots were converted to grayscale and then binary, analyzed using Fiji, and normalized to appropriate loading controls.

Row | Structure (SMILES) | expression of CREB | expression of GluR1 | expression of NR2A
1 | CCOC(=O)C(C)(C)C(C)O (stereo not drawn) [HMB] | upregulated | upregulated | upregulated
2 | CCCCCCCCCCCCCCCC(N)=O [HEX, hexadecanamide] | upregulated | upregulated | upregulated
3 | CCCCCCCCC=CCCCCCCCC(N)=O [OCT, 9-octadecenamide] | upregulated | upregulated | upregulated
